Data from article PMC4138103 (PLoS ONE, 2014).

Experiments:
Assay type in all cases: in vivo, Rattus norvegicus
Sprague-Dawley rats [1] = assay: Open field test for locomotor activity; conditions: for Emax: Rattus norvegicus; for Habituation, distance, CED / Habituation, distance, CED-L / Habituation, time, CED / Habituation, time, CED-L / Percent distance in inner zone, day 24, CED / Percent distance in inner zone, day 24, CED-L / Percent time in inner zone, day 24, CED / Percent time in inner zone, day 24, CED-L: total dose based
Procedure: During the last 5 days of the study (days 24–28), rats were tested for locomotor activity in an octagonal open field (diameter 75 cm). The behavior was recorded on videotapes and automatically evaluated with a program for behavioral analyses (Ethovision, Noldus, NL). Each rat was tested for 5 min on each of the 5 days to allow the examination of habituation. Sequence of the rats to be tested was varied according to a permutation scheme to exclude a systematic influence of daytime on the outcome. For analyses, the area of the open field was divided in an inner zone (diameter 50 cm) and an outer ring (width 12.5 cm). Total distance moved during the recording period, distance moved in the inner zone of the open field, distance moved in outer zone, time in inner zone, and time in outer zone were extracted as parameters from the recordings.
(§1) Data were also analyzed using the BMD method, which is based on dose-response modeling of the full data set using a nested family of exponential and Hill models. The analyses were done on data of males and females combined, using sex as a covariate. […] In that case, different Critical Effect Doses (CEDs) and CEDs at the lowest bound of the confidence interval (CED-L) were generated for each sex. If no difference between sexes is detected, a CED and CED-Ls for the combined data is generated. However, this was also done if the curve fits are close, and separate analyses for males and females were then performed manually. CEDs and CED-Ls were calculated at the predefined Critical Effect Size (CES) of 5% (EFSA standard) or 10%.

Sprague-Dawley rats [2] = assay: Sperm analyses, cauda epididymis; conditions: males
Procedure: Frozen right cauda epididymides were homogenized for 2 min using Ultra Turrax homogenizer (model T25 basic, IKA-WERKE GmbH, Staufen, Germany) in 20 ml 0.9% saline containing 0.05% Triton X-100 and 0.01% thiomersal. Homogenates were diluted to about 1×10^6 sperms/ml, and counts from 4 hemocytometer chambers were counted and averaged.

Sprague-Dawley rats [3] = assay: Bone biomechanics, three-point bending test of tibial shaft; conditions: for CED, F yield / CED-L, F yield: adipose tissue concentration based; for Emax: Rattus norvegicus
Procedure: For biomechanical testing hind limbs were defrosted and tibial shafts tested with a three-point bending test using a custom made testing apparatus, [34]. Each bone was placed on a support with a span length of 13 mm and bending load was applied with a constant speed of 0.155 mm/sec until failure. The breaking force, bending stiffness and yield force were defined from load-displacement data. Stiffness was calculated as the slope of the linear part of load-displacement curve. Yield force was defined as a corresponding force where the fit for stiffness separated from the measured load-displacement curve. The breaking force was defined as bending load at maximum. Corresponding to these forces also both failure and yield deformations were evaluated.
as §1

[4] = F, CES 5%, model E2, adipose tissue concentration based
[5] = F, CES 5%, model E4, adipose tissue concentration based
[6] = F, CES 10%, model E2, adipose tissue concentration based
[7] = F, CES 10%, model E4, adipose tissue concentration based
[8] = females, CES 5%, adipose tissue concentration based
[9] = females, adipose tissue concentration based
[10] = females, CES 5%, total dose based

Clc1cc(Cl)c(-c2cc(Cl)c(Cl)c(Cl)c2Cl)cc1Cl [PCB 180, 2,2′,3′,4,4′,5,5′-heptachlorobiphenyl]
CED, Habituation, distance (Sprague-Dawley rats [1]; [4]): 1340 µg/g lipid | CED, Habituation, time (Sprague-Dawley rats [1]; [4]): 1130 µg/g lipid | CED-L, Habituation, distance (Sprague-Dawley rats [1]; [4]): 865 µg/g lipid | CED-L, Habituation, time (Sprague-Dawley rats [1]; [4]): 739 µg/g lipid | CED, Percent distance in inner zone, day 24 (Sprague-Dawley rats [1]; [5]): 4.12 µg/g lipid | CED, Percent time in inner zone, day 24 (Sprague-Dawley rats [1]; [5]): 1.55 µg/g lipid | CED-L, Percent distance in inner zone, day 24 (Sprague-Dawley rats [1]; [5]): 1.16 µg/g lipid | CED-L, Percent time in inner zone, day 24 (Sprague-Dawley rats [1]; [5]): 0.525 µg/g lipid | CED, Habituation, distance (Sprague-Dawley rats [1]; [6]): 2740 µg/g lipid | CED, Habituation, time (Sprague-Dawley rats [1]; [6]): 2320 µg/g lipid | CED-L, Habituation, distance (Sprague-Dawley rats [1]; [6]): 1777 µg/g lipid | CED-L, Habituation, time (Sprague-Dawley rats [1]; [6]): 1518 µg/g lipid | CED, Percent distance in inner zone, day 24 (Sprague-Dawley rats [1]; [7]): 8.69 µg/g lipid | CED, Percent time in inner zone, day 24 (Sprague-Dawley rats [1]; [7]): 3.17 µg/g lipid | CED-L, Percent distance in inner zone, day 24 (Sprague-Dawley rats [1]; [7]): 2.423 µg/g lipid | CED-L, Percent time in inner zone, day 24 (Sprague-Dawley rats [1]; [7]): 1.07 µg/g lipid | Emax (Sprague-Dawley rats [1]; 576 h, F, model E4, controls vs high dose according to the fitted model, read-out: Maximum response, Percent distance in inner zone, day 24): 53% | Emax (Sprague-Dawley rats [1]; 576 h, F, model E4, controls vs high dose according to the fitted model, read-out: Maximum response, Percent time in inner zone, day 24): 111% | Emax (Sprague-Dawley rats [1]; 576 h, females, controls vs high dose, fitted model, read-out: Percent distance in inner zone, day 24, Maximum response): 53% | Emax (Sprague-Dawley rats [1]; 576 h, females, controls vs high dose, fitted model, read-out: Percent time in inner zone, day 24, Maximum response): 107% | Emax (Sprague-Dawley rats [1]; F, model E2, controls vs high dose according to the fitted model, read-out: Maximum response, Habituation, distance): -35.2% | Emax (Sprague-Dawley rats [1]; F, model E2, controls vs high dose according to the fitted model, read-out: Maximum response, Habituation, time): -40.1% | Emax (Sprague-Dawley rats [1]; females, controls vs high dose, fitted model, read-out: Habituation, distance, Maximum response): -33.2% | Emax (Sprague-Dawley rats [1]; females, controls vs high dose, fitted model, read-out: Habituation, time, Maximum response): -37.7% | Percentage of distance moved in inner zone, day 24, CED (Sprague-Dawley rats [1]; [8]): 4.12 µg/g lipid | Percentage of time in inner zone, day 24, CED (Sprague-Dawley rats [1]; [8]): 1.55 µg/g lipid | Habituation, distance, CED (Sprague-Dawley rats [1]; females, CES 5%): 216 mg/kg bw | Habituation, distance, CED-L (Sprague-Dawley rats [1]; females, CES 5%): 138 mg/kg bw | Habituation, time, CED (Sprague-Dawley rats [1]; females, CES 5%): 184 mg/kg bw | Habituation, time, CED-L (Sprague-Dawley rats [1]; females, CES 5%): 118 mg/kg bw | Percent distance in inner zone, day 24, CED (Sprague-Dawley rats [1]; females, CES 5%): 0.87 mg/kg bw | Percent distance in inner zone, day 24, CED-L (Sprague-Dawley rats [1]; females, CES 5%): 0.25 mg/kg bw | Percent time in inner zone, day 24, CED (Sprague-Dawley rats [1]; females, CES 5%): 0.35 mg/kg bw | Percent time in inner zone, day 24, CED-L (Sprague-Dawley rats [1]; females, CES 5%): 0.11 mg/kg bw | Habituation, distance, CED (Sprague-Dawley rats [1]; females, CES 10%): 444 mg/kg bw | Habituation, distance, CED-L (Sprague-Dawley rats [1]; females, CES 10%): 283 mg/kg bw | Habituation, time, CED (Sprague-Dawley rats [1]; females, CES 10%): 378 mg/kg bw | Habituation, time, CED-L (Sprague-Dawley rats [1]; females, CES 10%): 243 mg/kg bw | Percent distance in inner zone, day 24, CED (Sprague-Dawley rats [1]; females, CES 10%): 1.84 mg/kg bw | Percent distance in inner zone, day 24, CED-L (Sprague-Dawley rats [1]; females, CES 10%): 0.53 mg/kg bw | Percent time in inner zone, day 24, CED (Sprague-Dawley rats [1]; females, CES 10%): 0.71 mg/kg bw | Percent time in inner zone, day 24, CED-L (Sprague-Dawley rats [1]; females, CES 10%): 0.23 mg/kg bw | Habituation, percentage of distance moved, CED (Sprague-Dawley rats [1]; [9]): 1340 µg/g lipid | Habituation, time in inner zone, CED (Sprague-Dawley rats [1]; [9]): 1130 µg/g lipid | Spontanous locomotor activity, CED-L (Sprague-Dawley rats [1]; [9]): 525 ng/g lipid | Altered open field behavior, CED-L (Sprague-Dawley rats [1]; females, critical effect for risk characterization): 0.525 µg/g lipid | Open field behavior, dose-response relations (Sprague-Dawley rats [1]; males): No significant dose-response relations | Cauda epididymal sperm density (Sprague-Dawley rats [2]; 1700 mg/kg bw vs control): not affected | Sperm density (Sprague-Dawley rats [2]; total dose 1700 mg/kg bw, cauda epididymis, group mean): 691 106/g tissue | Sperm count (Sprague-Dawley rats [2]; total dose 1700 mg/kg bw, group mean): 94.0 106/cauda epididymis | CED, F yield (Sprague-Dawley rats [3]; F, CES 5%, model E2): 2860 µg/g lipid | CED-L, F yield (Sprague-Dawley rats [3]; F, CES 5%, model E2): 1647 µg/g lipid | CED, F yield (Sprague-Dawley rats [3]; F, CES 10%, model E2): 5880 µg/g lipid | CED-L, F yield (Sprague-Dawley rats [3]; F, CES 10%, model E2): 3384 µg/g lipid | Emax (Sprague-Dawley rats [3]; F, model E2, controls vs high dose according to the fitted model, read-out: Maximum response, F yield): -18.3% | Emax (Sprague-Dawley rats [3]; females, controls vs high dose, fitted model, read-out: F yield, Maximum response): -16.7% | F yield, CED (Sprague-Dawley rats [3]; [10]): 476 mg/kg bw | F yield, CED-L (Sprague-Dawley rats [3]; [10]): 266 mg/kg bw | F yield, CED (Sprague-Dawley rats [3]; females, CES 10%, total dose based): 978 mg/kg bw
